Results published in article PMC12274840 (The Journal of Biological Chemistry, 2025).
≈ marks a conversion by molar mass, not a printed value.

What was measured:
[1] = test system: E. coli KA797 cells carrying pUK21 with BlaC I105G; assay type: cell-based, Escherichia coli; settings: antibiotic alone
[2] = test system: E. coli KA797 cells carrying pUK21 with TEM-1 Y105G; assay type: cell-based, Escherichia coli; settings: antibiotic alone
TEM-1 WT = TEM-1 WT (Escherichia coli, UniProt P62593)
Sequence of TEM-1 WT (P62593 24-286 limits assumed): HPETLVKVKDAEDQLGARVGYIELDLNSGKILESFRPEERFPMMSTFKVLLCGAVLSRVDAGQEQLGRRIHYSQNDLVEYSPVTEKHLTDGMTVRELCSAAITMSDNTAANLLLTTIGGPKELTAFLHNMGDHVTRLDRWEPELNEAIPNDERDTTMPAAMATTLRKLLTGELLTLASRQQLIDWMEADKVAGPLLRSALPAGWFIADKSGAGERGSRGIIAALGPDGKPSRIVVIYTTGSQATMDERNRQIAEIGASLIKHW

Row | SMILES | MIC [1] [µg/mL] | MIC [2] | kcat (TEM-1 WT; phosphate buffer pH 6.4, 25 °C) [s⁻¹] | Km (TEM-1 WT; read-out: KM^app, phosphate buffer pH 6.4, 25 °C) [µM]
1 | CC1(C)S[C@@H]2[C@H](NC(=O)C(C(=O)O)c3ccccc3)C(=O)N2[C@H]1C(=O)O (stereo partly shown) [carbenicillin] | 800 (≈ 2110 µM) | 16,000 μg/ml | – | –
2 | CC1(C)S[C@@H]2[C@H](NC(=O)[C@H](N)c3ccccc3)C(=O)N2[C@H]1C(=O)O [ampicillin] | – | – | 2359 ± 16 | 72 ± 1
